Format in all cases: cell-based, human
Assay [1] relates to LPS-stimulated PBM. The experiment in a line: TGF-β1 release by ELISA, PBM. To be noted: for potentiation of TGF-β1 production by LPS-stimulated PBM: preincubated 24 hour. As for the experimental part: FIG. 6 depicts the effect of IL-9, IL-4 and IFN-γ on the release of IL-10 (A) and TGF-β1 (B) by LPS-stimulated PBM and AM cultured under the same conditions as described in FIG. 5 Example I. D. TGF-β1 was determined by ELISA in crude supernatants (untreated supernatants) and in ethanol-acid (acid-treated) supernatants, using a kit from Biosource for determining TGF-β1 release from its latent complexes. An ELISA kit from CLB (Amsterdam, The Netherlands) was used to determine IL-10 following the manufacturer's protocol. […] Data are means±SEM (n=3). *P<0.05 compared with unstimulated cells; **P<0.05 compared with cells preincubated with medium.
Cells (1×10^6 PBM or 0.5×10^6 AM/well) were distributed in 24-well plates (Falcon), preincubated in cRPMI for 24 hours at 37° C., 5% CO2 with cytokines (IL-9, IL-4 (20 ng/ml) and IFN-γ (200 U/ml)) and stimulated for 20 hours with 1 μg/ml LPS without removing cytokines. Supernatants were harvested and frozen at −20° C. until cytokine titration. Release of TNF-α was quantified by a cytotoxicity bioassay using WEHI 164 cells clone 13, as previously described (Espevik and Nissen-Meyer, J. Immunol. Methods, 95:99-105 (1986) incorporated herein by reference), using rhTNF-α from Boehringer as a standard. IL-8, IL-10 and TGF-β1 concentrations were determined by ELISA. A kit from CLB (Amsterdam, The Netherlands) was used for IL-10 quantitation, following the manufacturer's protocol. A kit from Biosource allowed to determine TGF-β1 after the release from its latent complexes by a treatment of supernatants with ethanol acid (‘acid-treated supernatants’); TGF-P 1 was also assessed in crude supernatants (‘untreated supernatants’). To assay for IL-8, 96-well plates were coated overnight at 4° C. with 4 μg/ml anti-hIL-8 mAb (Sigma, clone 6217.11) in 100 mM sodium carbonate buffer (pH 9.6). After washings in PBS containing 0.1% v/v Tween 20 and blocking for 1 hour at 37° C. with 1% w/v BSA in the same buffer, rhIL-8 standards (Biosource International) and supernatants were incubated for 2 hour at 37° C. Plates were then incubated with 20 ng/ml biotinylated polyclonal anti-hIL-8 Ab (R§D Systems) in blocking buffer and, after washings, with HRP-conjugated streptavidin (Sigma). The reaction was then developed in 0.03% v/v H2O2 substrate and 0.42 mM 3,3′,5,5′-tetramethylbenzidine as chromogen in 100 mM sodium acetate/citric acid buffer (pH 4.9), stopped with 2 M H2SO4, and read in a plate spectrometer at 450 nm. The sensitivity of the TNF-α bioassay was 0.2 pg/ml, and that of IL-8, IL-10, and TGF-β1 immunoassays 10 pg/ml, 2 pg/ml, and 2 pg/ml, respectively. All supernatants were assayed in duplicate.
Background: ELISA stands for enzyme-linked immunosorbent assay.

Assay [2] relates to LPS-stimulated AM. Put plainly: IL-8 release by ELISA, AM. Particulars: preincubated 24 hour, LPS 20 hour. The procedure:
PBM and AM obtained as described infra (1×10^6 PBM, 0.5×10^6 AM) were preincubated for 24 hour with cytokines, IL-4, IL-9 (20 ng/ml) and IFN-γ (200 U/ml) before the stimulation by LPS (1 μg/ml) for 20 h. Supernatants were harvested and frozen at −20° C. until cytokine titration. TNF-α release was determined in supernatants by a cytotoxic bioassay using WEHI 164 clone 13 target cells (Espevik and Nissen-Meyer, J. Immunol. Methods, 95:99-105 (1986) (incorporated herein by reference)), while IL-8 was quantitated in the same supernatants by ELISA. FIG. 5 depicts the effects of IL-9, IL-4, and IFN-γ on the release of TNFα (A) and IL-8 (B) by LPS-stimulated PBM and AM. […]
Cells (1×10^6 PBM or 0.5×10^6 AM/well) were distributed in 24-well plates (Falcon), preincubated in cRPMI for 24 hours at 37° C., 5% CO2 with cytokines (IL-9, IL-4 (20 ng/ml) and IFN-γ (200 U/ml)) and stimulated for 20 hours with 1 μg/ml LPS without removing cytokines. […] Release of TNF-α was quantified by a cytotoxicity bioassay using WEHI 164 cells clone 13, as previously described (Espevik and Nissen-Meyer, J. Immunol. Methods, 95:99-105 (1986) incorporated herein by reference), using rhTNF-α from Boehringer as a standard. IL-8, IL-10 and TGF-β1 concentrations were determined by ELISA. A kit from CLB (Amsterdam, The Netherlands) was used for IL-10 quantitation, following the manufacturer's protocol. […]

The test system of assay [3] is ERK½. Put plainly: ERK½ MAP kinase phosphorylation immunoblot in PBM. To be noted: pretreatment before LPS 1 μg/ml; IL-9 20 ng/ml 24 hour; PD98059 1 hour. As for the experimental part:
PBM, isolated as described infra, were treated with 100 !M PD98059 (or with the same volume of DMSO as control) 1 hour before preincubation for 24 hour with medium or IL-9 (20 ng/ml). For the phosphoERK immunoblot assay (A), PBM were then stimulated by LPS (1 μg/ml) for the indicated periods of time (5 min to 20 hours) as compared to unstimulated cells (med), and processed for the detection of phosphorylated and total ERK½ as described in infra. For the oxidative burst (B), PBM were stimulated by LPS (1 μg/ml) for 20 hour and their oxidative capacity was evaluated through DCFH oxidation The results are presented in FIG. 7.
PBM were preincubated for 24 hour with medium alone (med) or IL-9, IL-4 or TGF-β1 (20 ng/ml), and stimulated by LPS (1 μg/ml) for the indicated periods of time (30 to 240 min). […]
PBM (1×10^6) were preincubated for 24 hour with medium alone or with cytokines (IL-9, IL-4 or TGF-β1 at 20 ng/ml) and stimulated from 5 min to 20 hour by 1 μg/ml LPS. […] Cell extracts (10 μg, as determined by the bicinchoninic acid-based assay) were subjected to SDS-12%PAGE, and electrotransferred onto a nitrocellulose membrane (Amersham) immunoblotted to detect and compare phosphorylated (threonine^202/tyrosine^204 residues) and total ERK½, using specific antibodies and enhanced chemiluminescence (New England Biolabs). […]

For the molecule “IL-4: Th2 cytokine interleukin-4 used as comparator, 20 ng/ml”, in assay [1] (LPS 20 h), the “potentiation of TGF-β1 production by LPS-stimulated PBM” value is listed as “not observed”.

Take “IL-9: Human IL-9 purified from SF9 insect cell cultures infected with recombinant baculovirus”: in assay [2], the “effect on IL-8 release by LPS-stimulated AM” value is “no significant modulation”. For the same molecule, the “LPS-induced ERK½ phosphorylation in PBM” value in assay [3] is “strongly down regulates”. Further, in assay [1] (acid-treated supernatants, preincubated 24 hour 20 ng/ml, LPS 20 h, medium-preincubated 586±64), the “production of TGF-β1 by LPS-stimulated PBM” value is 1687 ± 94 pg/mL. In addition, the “modulation of TGF-β1 in unstimulated PBM” value in assay [1] (without LPS) is “no modulation”.

B1: IFN-γ: Interferon gamma, primes mononuclear phagocytes, 200 U/ml (protein, UniProt P01579 24-161, looked up)
Interferon gamma: QDPYVKEAENLKKYFNAGHSDVADNGTLFLGILKNWKEESDRKIMQSQIVSFYFKLFKNFKDDQSIQKSVETIKEDMNVKFFNSNKKKRDDFEKLTNYSVTDLNVQRKAIHELIQVMAELSPAAKTGKRKRSQMLFRG
For B1, the “effect on IL-8 release by LPS-stimulated AM” value in assay [2] is given as “no significant modulation”. Moreover, the “potentiation of TGF-β1 production by LPS-stimulated PBM” value in assay [1] (LPS 20 h) is listed as “not observed”.

Values taken from patent US20030091533A1, “Regulation of mononuclear phagocyte stimulation” (priority 2001, published 2003).
